Experimental findings from patent US11306101B2 (Celgene Corporation, priority 2019, dated 2022) are described below.

Each structure is given as a SMILES string.

The target of this assay is T1, CK1α (Homo sapiens, UniProt P48729+Q96SW2).
T1 construct: expressed in transfected cells
The assay is described as follows: CK1α ePL degradation assay in MDS-L cells. It is filed as cell-based. The conditions noted are these: MDS-L cells expressing ePL-tagged CK1α; for DC50: concentration giving 50% CK1α degradation vs DMSO control; for Y: lowest measured CK1α level normalized to DMSO control. The procedure: The following is an example of an assay that can be used to determine the CK1α degradation activity of Isoindolinone Carboxamide Compounds in a cell line, for example, the MDS-L cell line.
Compounds were dispensed by an acoustic dispenser (ATS acoustic transfer system from EDC Biosystems) into a 384-well in a 10 point dose-response curve using 3-fold dilutions starting at 10 μM and going down to 0.0005 μM in DMSO. […] Assay plates were incubated at 37° C. with 5% CO2 for the indicated times. At the different time points, 25 μL of the InCELL Hunter™ Detection Reagent Working Solution (catalog number 96-0002, DiscoverX, Fremont, Calif.) was added to each well and incubated at RT for 30 min protected from light. After 30 min, luminescence was read on a PHERAstar luminometer (BMG LABTECH, Cary, N.C.).
CK1α levels in compound-treated wells were normalized to that of DMSO control and expressed as percent of control (PoC) (y).
The lowest measured CK1α level normalized to DMSO control in response to compound treatment, termed Y value, was used to characterize the compound-mediated CK1α degradation efficiency.

T1 sequence (P48729 whole entry): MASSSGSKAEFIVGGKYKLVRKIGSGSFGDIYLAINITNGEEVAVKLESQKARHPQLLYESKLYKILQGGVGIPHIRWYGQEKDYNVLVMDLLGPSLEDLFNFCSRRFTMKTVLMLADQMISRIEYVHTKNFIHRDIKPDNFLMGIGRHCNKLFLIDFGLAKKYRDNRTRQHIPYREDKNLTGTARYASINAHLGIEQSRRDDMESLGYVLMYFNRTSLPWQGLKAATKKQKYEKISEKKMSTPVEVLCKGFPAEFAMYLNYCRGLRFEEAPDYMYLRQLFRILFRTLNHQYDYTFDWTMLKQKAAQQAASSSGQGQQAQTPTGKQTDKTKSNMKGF
T1 sequence (Q96SW2 whole entry): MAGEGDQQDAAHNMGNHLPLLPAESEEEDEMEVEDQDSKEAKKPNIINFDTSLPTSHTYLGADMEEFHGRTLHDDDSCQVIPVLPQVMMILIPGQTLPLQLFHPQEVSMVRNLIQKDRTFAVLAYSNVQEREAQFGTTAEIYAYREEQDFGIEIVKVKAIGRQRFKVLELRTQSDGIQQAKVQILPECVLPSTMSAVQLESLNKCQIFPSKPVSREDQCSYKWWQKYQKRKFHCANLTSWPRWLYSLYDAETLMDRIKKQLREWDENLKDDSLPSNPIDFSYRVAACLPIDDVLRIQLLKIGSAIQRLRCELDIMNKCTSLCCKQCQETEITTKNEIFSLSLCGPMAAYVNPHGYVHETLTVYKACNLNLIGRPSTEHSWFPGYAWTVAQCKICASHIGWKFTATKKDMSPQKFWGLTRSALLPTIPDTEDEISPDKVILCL
T1 sequence (Q16531 whole entry partner): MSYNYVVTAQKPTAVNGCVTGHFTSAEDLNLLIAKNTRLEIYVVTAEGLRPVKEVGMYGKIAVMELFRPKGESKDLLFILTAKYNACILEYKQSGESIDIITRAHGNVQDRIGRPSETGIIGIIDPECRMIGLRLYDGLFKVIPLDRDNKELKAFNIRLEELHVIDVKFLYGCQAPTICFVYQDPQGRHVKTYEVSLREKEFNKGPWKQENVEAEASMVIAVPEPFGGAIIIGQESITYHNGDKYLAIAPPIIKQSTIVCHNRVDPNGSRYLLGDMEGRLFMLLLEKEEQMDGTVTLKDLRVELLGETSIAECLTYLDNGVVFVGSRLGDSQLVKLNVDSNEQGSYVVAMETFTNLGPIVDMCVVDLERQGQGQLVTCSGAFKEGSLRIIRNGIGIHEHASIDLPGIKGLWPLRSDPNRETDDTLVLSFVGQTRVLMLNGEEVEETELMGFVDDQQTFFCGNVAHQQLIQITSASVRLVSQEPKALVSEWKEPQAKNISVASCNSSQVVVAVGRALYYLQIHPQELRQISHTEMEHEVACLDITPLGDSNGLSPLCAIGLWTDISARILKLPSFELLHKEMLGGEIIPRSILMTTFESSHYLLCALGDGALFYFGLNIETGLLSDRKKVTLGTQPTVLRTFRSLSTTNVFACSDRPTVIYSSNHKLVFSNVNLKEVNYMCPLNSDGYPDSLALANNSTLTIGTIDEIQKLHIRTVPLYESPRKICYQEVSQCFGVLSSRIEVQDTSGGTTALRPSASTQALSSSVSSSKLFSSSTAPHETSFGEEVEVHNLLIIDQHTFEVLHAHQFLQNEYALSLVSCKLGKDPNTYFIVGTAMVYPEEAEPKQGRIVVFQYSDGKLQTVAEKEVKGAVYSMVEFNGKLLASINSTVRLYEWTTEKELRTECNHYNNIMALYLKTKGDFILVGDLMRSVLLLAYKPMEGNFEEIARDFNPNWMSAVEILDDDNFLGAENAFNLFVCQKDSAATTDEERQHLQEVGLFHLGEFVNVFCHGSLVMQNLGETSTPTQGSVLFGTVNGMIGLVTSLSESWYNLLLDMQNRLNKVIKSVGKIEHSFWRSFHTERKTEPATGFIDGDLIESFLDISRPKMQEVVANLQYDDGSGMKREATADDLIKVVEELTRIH

`CC(C)(C)[C@@H](NC(=O)c1ccc2c(c1)CN(C1CCC(=O)NC1=O)C2=O)C(F)(F)F` (stereo partly drawn) [Example 34, 2-(2,6-dioxopiperidin-3-yl)-1-oxo-N-((R)-1,1,1-trifluoro-3,3-dimethylbutan-2-yl)isoindoline-5-carboxamide]: the half-maximal degradation concentration (DC50) was 100 to 500 nM and the Y entry is listed as “** (a Y value (shown as**) of 20%<Y≤35%)”.

Turning to `COc1ccc([C@@H](NC(=O)c2ccc3c(c2)CN(C2CCC(=O)NC2=O)C3=O)C(F)(F)F)cc1` (stereo partly drawn) [Example 35, 2-(2,6-dioxopiperidin-3-yl)-1-oxo-N-((R)-2,2,2-trifluoro-1-(4-methoxyphenyl)ethyl)isoindoline-5-carboxamide], the DC50 is less than 100 nM and the Y result is listed as “* (a Y value (shown as *) of 0<Y≤20%)”.

Regarding `O=C1CCC(N2Cc3cc(C(=O)N[C@H](C4CCOCC4)C(F)(F)F)ccc3C2=O)C(=O)N1` (stereo partly drawn) [Example 36, 2-(2,6-dioxopiperidin-3-yl)-1-oxo-N-((R)-2,2,2-trifluoro-1-(tetrahydro-2H-pyran-4-yl)ethyl)isoindoline-5-carboxamide], the 50% degradation concentration (DC50) was 100 to 500 nM and the Y result was “** (a Y value (shown as**) of 20%<Y≤35%)”.

On to `O=C1CCC(N2Cc3cc(C(=O)N[C@H](c4cccc(F)c4)C(F)(F)F)ccc3C2=O)C(=O)N1` (stereo partly drawn) [Example 37, 2-(2,6-dioxopiperidin-3-yl)-1-oxo-N-((R)-2,2,2-trifluoro-1-(3-fluorophenyl)ethyl)isoindoline-5-carboxamide], for which the DC50 is less than 100 nM and the Y result is reported as “** (a Y value (shown as**) of 20%<Y≤35%)”.

With `COc1ccccc1[C@@H](NC(=O)c1ccc2c(c1)CN(C1CCC(=O)NC1=O)C2=O)C(F)(F)F` (stereo partly drawn) [Example 38, 2-(2,6-dioxopiperidin-3-yl)-1-oxo-N-((R)-2,2,2-trifluoro-1-(2-methoxyphenyl)ethyl)isoindoline-5-carboxamide], the DC50 is less than 100 nM and the Y result was “* (a Y value (shown as *) of 0<Y≤20%)”.

`O=C1CCC(N2Cc3cc(C(=O)N[C@H](c4ccncc4)C(F)(F)F)ccc3C2=O)C(=O)N1` (stereo partly drawn) [Example 39, 2-(2,6-dioxopiperidin-3-yl)-1-oxo-N-((R)-2,2,2-trifluoro-1-(pyridin-4-yl)ethyl)isoindoline-5-carboxamide]: the DC50 lay in the range of 500 to 1000 nM and the Y entry was “*** (a Y value (shown as***) of 35%<Y<50%)”.

Regarding `O=C1CCC(N2Cc3cc(C(=O)N[C@H](c4ccc(C(F)(F)F)cc4)C(F)(F)F)ccc3C2=O)C(=O)N1` (stereo partly drawn) [Example 40, 2-(2,6-dioxopiperidin-3-yl)-1-oxo-N-((R)-2,2,2-trifluoro-1-(4-(trifluoromethyl)phenyl)ethyl)isoindoline-5-carboxamide], the 50% degradation concentration (DC50) is less than 100 nM and the Y entry is listed as “* (a Y value (shown as *) of 0<Y≤20%)”.

In the case of `O=C1CCC(N2Cc3cc(C(=O)N[C@H](c4ccc(OC(F)(F)F)cc4)C(F)(F)F)ccc3C2=O)C(=O)N1` (stereo partly drawn) [Example 41, 2-(2,6-dioxopiperidin-3-yl)-1-oxo-N-((R)-2,2,2-trifluoro-1-(4-(trifluoromethoxy)phenyl)ethyl)isoindoline-5-carboxamide], the half-maximal degradation concentration (DC50) fell in the range of 100 to 500 nM and the Y entry is “* (a Y value (shown as *) of 0<Y≤20%)”.

Consider `O=C1CCC(N2Cc3cc(C(=O)N[C@H](c4ccc(Cl)cc4)C(F)(F)F)ccc3C2=O)C(=O)N1` (stereo partly drawn) [Example 42, N-((R)-1-(4-chlorophenyl)-2,2,2-trifluoroethyl)-2-(2,6-dioxopiperidin-3-yl)-1-oxoisoindoline-5-carboxamide], for which the DC50 was less than 100 nM and the Y result was “* (a Y value (shown as *) of 0<Y≤20%)”.

Take `O=C1CCC(N2Cc3cc(C(=O)N[C@H](c4cccc(Cl)c4)C(F)(F)F)ccc3C2=O)C(=O)N1` (stereo partly drawn) [Example 43, N-((R)-1-(3-chlorophenyl)-2,2,2-trifluoroethyl)-2-(2,6-dioxopiperidin-3-yl)-1-oxoisoindoline-5-carboxamide]: the DC50 is less than 100 nM and the Y entry is given as “* (a Y value (shown as *) of 0<Y≤20%)”.

Regarding `O=C1CCC(N2Cc3cc(C(=O)N[C@H](c4ccccc4OC(F)(F)F)C(F)(F)F)ccc3C2=O)C(=O)N1` (stereo partly drawn) [Example 44, 2-(2,6-dioxopiperidin-3-yl)-1-oxo-N-((R)-2,2,2-trifluoro-1-(2-(trifluoromethoxy)phenyl)ethyl)isoindoline-5-carboxamide], the DC50 is less than 100 nM and the Y entry was “* (a Y value (shown as *) of 0<Y≤20%)”.

Turning to `O=C1CCC(N2Cc3cc(C(=O)N[C@H](C4CCC(F)(F)CC4)C(F)(F)F)ccc3C2=O)C(=O)N1` (stereo partly drawn) [Example 45, N-((R)-1-(4,4-difluorocyclohexyl)-2,2,2-trifluoroethyl)-2-(2,6-dioxopiperidin-3-yl)-1-oxoisoindoline-5-carboxamide], the half-maximal degradation concentration (DC50) was 100 to 500 nM and the Y result is listed as “* (a Y value (shown as *) of 0<Y≤20%)”.

Consider `CC1(C)CCC([C@@H](NC(=O)c2ccc3c(c2)CN(C2CCC(=O)NC2=O)C3=O)C(F)(F)F)CC1` (stereo partly drawn) [Example 46, N-((R)-1-(4,4-dimethylcyclohexyl)-2,2,2-trifluoroethyl)-2-(2,6-dioxopiperidin-3-yl)-1-oxoisoindoline-5-carboxamide], for which the DC50 was 100 to 500 nM and the Y entry is listed as “* (a Y value (shown as *) of 0<Y≤20%)”.

Regarding `O=C1CCC(N2Cc3cc(C(=O)N[C@H](c4ccccc4C(F)(F)F)C(F)(F)F)ccc3C2=O)C(=O)N1` (stereo partly drawn) [Example 47, 2-(2,6-dioxopiperidin-3-yl)-1-oxo-N-((R)-2,2,2-trifluoro-1-(2-(trifluoromethyl)phenyl)ethyl)isoindoline-5-carboxamide], the DC50 was less than 100 nM and the Y result was “* (a Y value (shown as *) of 0<Y≤20%)”.

Turning to `O=C1CCC(N2Cc3cc(C(=O)N[C@H](c4ccccn4)C(F)(F)F)ccc3C2=O)C(=O)N1` (stereo partly drawn) [Example 48, 2-(2,6-dioxopiperidin-3-yl)-1-oxo-N-((R)-2,2,2-trifluoro-1-(pyridin-2-yl)ethyl)isoindoline-5-carboxamide], the DC50 fell in the range of 100 to 500 nM and the Y result is recorded as “** (a Y value (shown as**) of 20%<Y≤35%)”.

On to `O=C1CCC(N2Cc3cc(C(=O)N[C@H](c4ccccc4F)C(F)(F)F)ccc3C2=O)C(=O)N1` (stereo partly drawn) [Example 49, 2-(2,6-dioxopiperidin-3-yl)-1-oxo-N-((R)-2,2,2-trifluoro-1-(2-fluorophenyl)ethyl)isoindoline-5-carboxamide], for which the DC50 is less than 100 nM and the Y result is “* (a Y value (shown as *) of 0<Y≤20%)”.

Turning to `O=C1CCC(N2Cc3cc(C(=O)N[C@H](c4ccccc4Cl)C(F)(F)F)ccc3C2=O)C(=O)N1` (stereo partly drawn) [Example 50, N-((R)-1-(2-chlorophenyl)-2,2,2-trifluoroethyl)-2-(2,6-dioxopiperidin-3-yl)-1-oxoisoindoline-5-carboxamide], the half-maximal degradation concentration (DC50) is less than 100 nM and the Y result is “* (a Y value (shown as *) of 0<Y≤20%)”.

In the case of `C[C@H](NC(=O)c1ccc2c(c1)CN(C1CCC(=O)NC1=O)C2=O)c1ccc(F)cc1F` (stereo partly drawn) [Example 51, N-((S)-1-(2,4-difluorophenyl)ethyl)-2-(2,6-dioxopiperidin-3-yl)-1-oxoisoindoline-5-carboxamide], the half-maximal degradation concentration (DC50) is less than 100 nM and the Y result is recorded as “* (a Y value (shown as *) of 0<Y≤20%)”.

`O=C1CCC(N2Cc3cc(C(=O)N[C@H](c4cccc(C(F)(F)F)c4)C(F)(F)F)ccc3C2=O)C(=O)N1` (stereo partly drawn) [Example 52, 2-(2,6-dioxopiperidin-3-yl)-1-oxo-N-((R)-2,2,2-trifluoro-1-(3-(trifluoromethyl)phenyl)ethyl)isoindoline-5-carboxamide]: the DC50 is less than 100 nM and the Y result is “* (a Y value (shown as *) of 0<Y≤20%)”.

Regarding `O=C1CCC(N2Cc3cc(C(=O)N[C@H](C4CCC5(CCC5)CC4)C(F)(F)F)ccc3C2=O)C(=O)N1` (stereo partly drawn) [Example 53, 2-(2,6-dioxopiperidin-3-yl)-1-oxo-N-((1R)-2,2,2-trifluoro-1-(spiro[3.5]nonan-7-yl)ethyl)isoindoline-5-carboxamide], the DC50 was less than 100 nM and the Y result was “* (a Y value (shown as *) of 0<Y≤20%)”.

On to `O=C1CCC(N2Cc3cc(C(=O)N[C@H](c4cccnc4)C(F)(F)F)ccc3C2=O)C(=O)N1` (stereo partly drawn) [Example 54, 2-(2,6-dioxopiperidin-3-yl)-1-oxo-N-((R)-2,2,2-trifluoro-1-(pyridin-3-yl)ethyl)isoindoline-5-carboxamide], for which the DC50 fell in the range of 100 to 500 nM and the Y entry is “** (a Y value (shown as**) of 20%<Y≤35%)”.

On to `C[C@H](NC(=O)c1ccc2c(c1)CN(C1CCC(=O)NC1=O)C2=O)c1ccc(Cl)cc1F` (stereo partly drawn) [Example 55, N-((S)-1-(4-chloro-2-fluorophenyl)ethyl)-2-(2,6-dioxopiperidin-3-yl)-1-oxoisoindoline-5-carboxamide], for which the DC50 is less than 100 nM and the Y entry was “* (a Y value (shown as *) of 0<Y≤20%)”.

For `O=C1CCC(N2Cc3cc(C(=O)N[C@H]([C@H]4CC[C@H](O)CC4)C(F)(F)F)ccc3C2=O)C(=O)N1` (stereo partly drawn) [Example 56, 2-(2,6-dioxopiperidin-3-yl)-1-oxo-N-((R)-2,2,2-trifluoro-1-((1r,4R)-4-hydroxycyclohexyl)ethyl)isoindoline-5-carboxamide], the DC50 was 100 to 500 nM and the Y result is “* (a Y value (shown as *) of 0<Y≤20%)”.
